According to patent publication US20090118332A1, “Therapeutic Agents - 551” (AstraZeneca AB, priority 2006, published 2009):

Biological target: T1, human Fatty Acid Synthase (Homo sapiens, UniProt P49327)
T1 construct: made in house
Experiment: Human FAS enzyme assay (decrease in NADPH fluorescence)
Assay type: biochemical
Settings: % inhibition at a concentration of 100 μmolar
Procedure, shortened: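 In-house human FAS was preincubated with compound and NADPH for 15 min at room temperature in 0.1 M Tris pH 7.5 with EDTA, glutathione and BSA. Malonyl CoA and acetyl CoA (500 μM and 150 μM in the added mix) were then added for 60 min. IC50 came from time-zero-subtracted NADPH fluorescence (340/460 nm).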

T1 sequence (P49327 whole entry): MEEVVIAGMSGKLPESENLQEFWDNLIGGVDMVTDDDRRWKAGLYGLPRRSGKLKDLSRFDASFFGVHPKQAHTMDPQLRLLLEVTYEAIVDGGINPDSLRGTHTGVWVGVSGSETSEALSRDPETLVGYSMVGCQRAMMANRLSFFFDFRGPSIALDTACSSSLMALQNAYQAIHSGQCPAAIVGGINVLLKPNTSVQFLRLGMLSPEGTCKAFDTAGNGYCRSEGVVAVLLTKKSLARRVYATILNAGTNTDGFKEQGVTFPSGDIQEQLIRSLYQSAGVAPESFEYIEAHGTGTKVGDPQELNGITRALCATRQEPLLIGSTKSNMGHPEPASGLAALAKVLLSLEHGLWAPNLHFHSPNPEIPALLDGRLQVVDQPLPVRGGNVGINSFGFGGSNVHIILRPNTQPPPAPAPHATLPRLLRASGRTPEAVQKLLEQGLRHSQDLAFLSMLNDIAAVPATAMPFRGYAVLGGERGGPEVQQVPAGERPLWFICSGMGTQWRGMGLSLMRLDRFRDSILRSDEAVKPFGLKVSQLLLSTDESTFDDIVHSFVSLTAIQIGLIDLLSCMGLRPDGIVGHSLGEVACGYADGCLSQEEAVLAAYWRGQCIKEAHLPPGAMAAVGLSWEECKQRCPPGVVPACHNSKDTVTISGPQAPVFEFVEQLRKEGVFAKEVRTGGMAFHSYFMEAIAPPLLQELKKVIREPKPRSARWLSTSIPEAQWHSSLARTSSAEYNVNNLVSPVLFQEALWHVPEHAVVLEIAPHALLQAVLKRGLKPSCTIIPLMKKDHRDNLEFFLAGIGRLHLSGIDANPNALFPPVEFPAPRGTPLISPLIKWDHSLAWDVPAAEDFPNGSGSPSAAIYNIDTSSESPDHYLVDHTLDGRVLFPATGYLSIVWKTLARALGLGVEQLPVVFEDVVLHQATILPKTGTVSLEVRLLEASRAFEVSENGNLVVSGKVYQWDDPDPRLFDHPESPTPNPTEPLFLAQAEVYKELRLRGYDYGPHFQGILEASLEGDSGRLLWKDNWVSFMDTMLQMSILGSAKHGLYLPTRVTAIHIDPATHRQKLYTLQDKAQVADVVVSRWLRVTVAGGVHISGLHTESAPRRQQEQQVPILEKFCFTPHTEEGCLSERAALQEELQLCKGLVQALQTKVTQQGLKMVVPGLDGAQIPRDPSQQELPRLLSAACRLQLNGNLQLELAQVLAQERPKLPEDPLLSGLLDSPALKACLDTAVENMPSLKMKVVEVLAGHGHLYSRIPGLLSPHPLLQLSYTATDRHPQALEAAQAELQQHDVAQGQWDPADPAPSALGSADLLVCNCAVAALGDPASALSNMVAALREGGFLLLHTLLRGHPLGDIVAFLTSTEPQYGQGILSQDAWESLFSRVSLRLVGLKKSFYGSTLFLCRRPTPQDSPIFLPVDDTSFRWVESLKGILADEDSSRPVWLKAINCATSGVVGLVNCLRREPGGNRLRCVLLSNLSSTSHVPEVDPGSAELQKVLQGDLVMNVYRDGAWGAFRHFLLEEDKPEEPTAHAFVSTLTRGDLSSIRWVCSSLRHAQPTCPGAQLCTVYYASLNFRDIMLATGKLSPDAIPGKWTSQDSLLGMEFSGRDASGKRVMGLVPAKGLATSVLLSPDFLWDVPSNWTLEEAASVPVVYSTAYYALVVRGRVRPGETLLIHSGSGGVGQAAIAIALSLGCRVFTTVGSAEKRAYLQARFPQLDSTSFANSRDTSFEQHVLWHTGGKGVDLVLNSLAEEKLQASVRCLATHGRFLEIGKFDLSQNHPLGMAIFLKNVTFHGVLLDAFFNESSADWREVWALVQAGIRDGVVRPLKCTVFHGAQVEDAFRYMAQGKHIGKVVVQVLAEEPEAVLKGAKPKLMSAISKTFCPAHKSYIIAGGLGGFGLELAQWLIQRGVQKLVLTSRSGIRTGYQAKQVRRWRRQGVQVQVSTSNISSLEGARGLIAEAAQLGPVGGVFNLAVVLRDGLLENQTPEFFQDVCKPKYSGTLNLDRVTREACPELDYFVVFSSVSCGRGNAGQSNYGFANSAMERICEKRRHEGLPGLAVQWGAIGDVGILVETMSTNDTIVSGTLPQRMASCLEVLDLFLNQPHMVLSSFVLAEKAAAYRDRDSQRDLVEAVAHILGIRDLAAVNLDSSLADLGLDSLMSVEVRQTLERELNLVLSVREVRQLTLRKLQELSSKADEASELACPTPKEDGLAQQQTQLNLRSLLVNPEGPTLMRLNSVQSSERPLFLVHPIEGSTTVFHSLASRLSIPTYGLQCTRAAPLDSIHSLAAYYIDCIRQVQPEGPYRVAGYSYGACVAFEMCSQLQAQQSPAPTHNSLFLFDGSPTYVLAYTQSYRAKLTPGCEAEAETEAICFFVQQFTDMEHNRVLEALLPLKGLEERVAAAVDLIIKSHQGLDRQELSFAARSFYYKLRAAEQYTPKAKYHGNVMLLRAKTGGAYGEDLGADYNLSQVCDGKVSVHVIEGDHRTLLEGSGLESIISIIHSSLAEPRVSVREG

Row | SMILES | inhibition at 100 µM [%]
1 | Cc1ccc(C(=O)N2CCC(c3ccc(C#N)cc3)CC2)cc1NC(=O)NCCN1CCC(F)(F)C1 [Example 254, 1-[5-[4-(4-cyanophenyl)piperidine-1-carbonyl]-2-methyl-phenyl]-3-[2-(3,3-difluoropyrrolidin-1-yl)ethyl]urea] | 104
2 | Cc1ccc(C(=O)N2CCC(c3ccc(C#N)cc3)CC2)cc1NC(=O)NC1CCC(N(C)C)CC1 (stereo not drawn) [Example 256, 1-[5-[4-(4-cyanophenyl)piperidine-1-carbonyl]-2-methyl-phenyl]-3-(4-dimethylaminocyclohexyl)urea] | 98.7
3 | Cc1ccc(C(=O)N2CCC(c3ccc(C#N)cc3)CC2)cc1NC(=O)NCc1cc(C)n(C)n1 [Example 257, 1-[5-[4-(4-cyanophenyl)piperidine-1-carbonyl]-2-methyl-phenyl]-3-[(1,5-dimethylpyrazol-3-yl)methyl]urea] | 86.2
4 | Cc1ccc(C(=O)N2CCC(c3ccc(C#N)cc3)CC2)cc1NC(=O)NCc1cn(C)nc1C [Example 258, 1-[5-[4-(4-cyanophenyl)piperidine-1-carbonyl]-2-methyl-phenyl]-3-[(1,3-dimethylpyrazol-4-yl)methyl]urea] | 89
5 | Cc1ccc(C(=O)N2CCC(c3ccc(C#N)cc3)CC2)cc1NC(=O)NC(C)(C)CN [Example 260, 3-(1-amino-2-methyl-propan-2-yl)-1-[5-[4-(4-cyanophenyl)piperidine-1-carbonyl]-2-methyl-phenyl]urea] | 77.4
6 | CC(=O)NC(C)(C)CNC(=O)Nc1cc(C(=O)N2CCC(c3ccc(C#N)cc3)CC2)ccc1C [Example 261, N-[1-[[5-[4-(4-cyanophenyl)piperidine-1-carbonyl]-2-methyl-phenyl]carbamoylamino]-2-methyl-propan-2-yl]acetamide] | 85.9
7 | CCC(=O)NC(C)(C)CNC(=O)Nc1cc(C(=O)N2CCC(c3ccc(C#N)cc3)CC2)ccc1C [Example 262, N-[1-[[5-[4-(4-cyanophenyl)piperidine-1-carbonyl]-2-methyl-phenyl]carbamoylamino]-2-methyl-propan-2-yl]propanamide] | 98.7
8 | Cc1ccc(C(=O)N2CCC(c3ccc(C#N)cc3)CC2)cc1NC(=O)NCC(C)(C)NC(=O)C(C)C [Example 263, N-[1-[[5-[4-(4-cyanophenyl)piperidine-1-carbonyl]-2-methyl-phenyl]carbamoylamino]-2-methyl-propan-2-yl]-2-methyl-propanamide] | 79
9 | Cc1csc(CNC(=O)Nc2cc(C(=O)N3CCC(c4ccc(C#N)cc4)CC3)ccc2C)n1 [Example 264, 1-[5-[4-(4-cyanophenyl)piperidine-1-carbonyl]-2-methyl-phenyl]-3-[(4-methyl-1,3-thiazol-2-yl)methyl]urea] | 90.1
10 | Cc1ccc(C(=O)N2CCC(c3ccc(C#N)cc3)CC2)cc1NC(=O)N[C@@H]1CCC(=O)NC1 [Example 265, 1-[5-[4-(4-cyanophenyl)piperidine-1-carbonyl]-2-methyl-phenyl]-3-[(3R)-6-oxo-3-piperidyl]urea] | 90.6
11 | Cc1ccc(C(=O)N2CCC(c3ccc(C#N)cc3)CC2)cc1NC(=O)NCc1ccncn1 [Example 266, 1-[5-[4-(4-cyanophenyl)piperidine-1-carbonyl]-2-methyl-phenyl]-3-(pyrimidin-4-ylmethyl)urea] | 103
12 | Cc1ccc(C(=O)N2CCC(c3ccc(C#N)cc3)CC2)cc1NC(=O)NCc1cn(C)cn1 [Example 267, 1-[5-[4-(4-cyanophenyl)piperidine-1-carbonyl]-2-methyl-phenyl]-3-[(1-methylimidazol-4-yl)methyl]urea] | 90.9
13 | Cc1ccc(C(=O)N2CCC(c3ccc(C#N)cc3)CC2)cc1NC(=O)NCC1CCN(C)C1 (stereo not drawn) [Example 268, 1-[5-[4-(4-cyanophenyl)piperidine-1-carbonyl]-2-methyl-phenyl]-3-[(1-methylpyrrolidin-3-yl)methyl]urea] | 90.1
14 | Cc1ccc(C(=O)N2CCC(c3ccc(C#N)cc3)CC2)cc1NC(=O)NCc1ncco1 [Example 269, 1-[5-[4-(4-cyanophenyl)piperidine-1-carbonyl]-2-methyl-phenyl]-3-(1,3-oxazol-2-ylmethyl)urea] | 89.9
15 | Cc1ccc(C(=O)N2CCC(c3ccc(C#N)cc3)CC2)cc1NC(=O)NCCN(C)C(=O)C(C)C [Example 271, N-[2-[[5-[4-(4-cyanophenyl)piperidine-1-carbonyl]-2-methyl-phenyl]carbamoylamino]ethyl]-N, 2-dimethyl-propanamide] | 93.4
16 | CCS(=O)(=O)N(C)CCNC(=O)Nc1cc(C(=O)N2CCC(c3ccc(C#N)cc3)CC2)ccc1C [Example 272, 3-[5-[4-(4-cyanophenyl)piperidine-1-carbonyl]-2-methyl-phenyl]-1-[2-(ethylsulfonyl-methyl-amino)ethyl]urea] | 93.9
17 | CC(=O)NCCCNC(=O)Nc1cc(C(=O)N2CCC(c3ccc(C#N)cc3)CC2)ccc1C [Example 273, N-[3-[[5-[4-(4-cyanophenyl)piperidine-1-carbonyl]-2-methyl-phenyl]carbamoylamino]propyl]acetamide] | 87

Row | SMILES | inhibition at 100 µM [%]
18 | Cc1ccc(C(=O)N2CCC(c3ccc(C#N)cc3)CC2)cc1NC(=O)NCCCNC(=O)C(C)C [Example 274, N-[3-[[5-[4-(4-cyanophenyl)piperidine-1-carbonyl]-2-methyl-phenyl]carbamoylamino]propyl]-2-methyl-propanamide] | 86
19 | CC(=O)N1CC[C@@H](NC(=O)Nc2cc(C(=O)N3CCC(c4ccc(C#N)cc4)CC3)ccc2C)C1 [Example 275, 3-[(3R)-1-acetylpyrrolidin-3-yl]-1-[5-[4-(4-cyanophenyl)piperidine-1-carbonyl]-2-methyl-phenyl]urea] | 106
20 | CCC(=O)N1CC[C@@H](NC(=O)Nc2cc(C(=O)N3CCC(c4ccc(C#N)cc4)CC3)ccc2C)C1 [Example 276, 3-[5-[4-(4-cyanophenyl)piperidine-1-carbonyl]-2-methyl-phenyl]-1-[(3R)-1-propanoylpyrrolidin-3-yl]urea] | 98.2
21 | CC(=O)N1CC[C@H](NC(=O)Nc2cc(C(=O)N3CCC(c4ccc(C#N)cc4)CC3)ccc2C)C1 [Example 277, 3-[(3S)-1-acetylpyrrolidin-3-yl]-1-[5-[4-(4-cyanophenyl)piperidine-1-carbonyl]-2-methyl-phenyl]urea] | 96.8
22 | Cc1ccc(NC(=O)NCCCS(C)(=O)=O)cc1C(=O)N1CCC(c2ccc(C#N)cc2)CC1 [Example 278, 1-[3-[4-(4-cyanophenyl)piperidine-1-carbonyl]-4-methyl-phenyl]-3-(3-methylsulfonylpropyl)urea] | 95.8
23 | Cc1ccc(C(=O)N2CCC(c3ccc(C#N)cc3)CC2)cc1NC(=O)NC1CCCN(C(=O)OC(C)(C)C)C1 (stereo not drawn) [Example 279, tert-butyl 3-[[5-[4-(4-cyanophenyl)piperidine-1-carbonyl]-2-methyl-phenyl]carbamoylamino]piperidine-1-carboxylate] | 99.4
24 | N#Cc1ccc(C2CCN(C(=O)c3ccc(C(F)(F)F)c(NC(=O)NCc4ccccc4)c3)CC2)cc1 [Example 280, 1-benzyl-3-[5-[4-(4-cyanophenyl)piperidine-1-carbonyl]-2-(trifluoromethyl)phenyl]urea] | 90.6
25 | Cc1ccc(C(=O)N2CCC(c3ccc(C#N)cc3)CC2)cc1NC(=O)NC1CCN(S(C)(=O)=O)CC1 [Example 281, 1-[5-[4-(4-cyanophenyl)piperidine-1-carbonyl]-2-methyl-phenyl]-3-(1-methylsulfonyl-4-piperidyl)urea] | 99.7
26 | CC(=O)N1CCC(NC(=O)Nc2cc(C(=O)N3CCC(c4ccc(C#N)cc4)CC3)ccc2C)CC1 [Example 282, 3-(1-acetyl-4-piperidyl)-1-[5-[4-(4-cyanophenyl)piperidine-1-carbonyl]-2-methyl-phenyl]urea] | 95
27 | Cc1ccc(C(=O)N2CCC(c3ccc(C#N)cc3)CC2)cc1NC(=O)NC1CCN(C(=O)C(C)C)CC1 [Example 283, 1-[5-[4-(4-cyanophenyl)piperidine-1-carbonyl]-2-methyl-phenyl]-3-[1-(2-methylpropanoyl)-4-piperidyl]urea] | 101
28 | Cc1ccc(C(=O)N2CCC(c3ccc(C#N)cc3)CC2)cc1NC(=O)NC1CCN(C(=O)N(C)C)CC1 [Example 284, 4-[[5-[4-(4-cyanophenyl)piperidine-1-carbonyl]-2-methyl-phenyl]carbamoylamino]-N,N-dimethyl-piperidine-1-carboxamide] | 106
29 | Cc1ccc(C(=O)N2CCC(c3ccc(C#N)cc3)CC2)cc1NC(=O)NC1CCN(S(=O)(=O)N(C)C)CC1 [Example 285, 1-[5-[4-(4-cyanophenyl)piperidine-1-carbonyl]-2-methyl-phenyl]-3-[1-(dimethylsulfamoyl)-4-piperidyl]urea] | 98.7
30 | Cc1ccc(C(=O)N2CCC(c3ccc(C#N)cc3)CC2)cc1NC(=O)NC1CCCNC1 (stereo not drawn) [Example 286, 1-[5-[4-(4-cyanophenyl)piperidine-1-carbonyl]-2-methyl-phenyl]-3-(3-piperidyl)urea] | 99.6
31 | Cc1ccc(C(=O)N2CCC(c3ccc(C#N)cc3)CC2)cc1NC(=O)NC1CCC1 [Example 287, 1-[5-[4-(4-cyanophenyl)piperidine-1-carbonyl]-2-methyl-phenyl]-3-cyclobutyl-urea] | 92.4
32 | Cc1ccc(C(=O)N2CCC(c3ccc(C#N)cc3)CC2)cc1NC(=O)NCC1CC1 [Example 288, 1-[5-[4-(4-cyanophenyl)piperidine-1-carbonyl]-2-methyl-phenyl]-3-(cyclopropylmethyl)urea] | 99.8
33 | Cc1ccc(C(=O)N2CCC(c3ccc(C#N)cc3)CC2)cc1NC(=O)NCc1cc[nH]n1 [Example 289, 1-[5-[4-(4-cyanophenyl)piperidine-1-carbonyl]-2-methyl-phenyl]-3-(1H-pyrazol-3-ylmethyl)urea] | 91.2
